Measured values reported in patent publication US20230125052A1, “RED BLOOD CELL-DERIVED VESICLE” (Imperial College Innovations Limited, priority 2019, published 2023).
Square brackets hold non-standard residues; d marks the D form. Side chains are listed from the residue outwards. Ends that are not written are not given here. maleimidomethyl‑cyclohexane‑carboxamide = linker coupling the Cys to DSPE; DSPE = DSPE lipid anchoring the peptide in the vesicle membrane

Legend:
[1] = system: thrombin-induced thrombus in sheep blood; experiment: In vitro antithrombotic assay (wet thrombus weight); format: cell-based; settings: equivalent ASA 0.1 mM, 37° C., 30 min
Experimental: 200 µL of sheep blood was added into a weighted tube. Then, 50 µL specific formulation (PBS, ASA-RBCVs, ASA-RGD-RBCVs, ASA-cRGD-PEG-RBCVs or ASA at an equivalent ASA concentration of 0.1 mM) was added in the tube, and then 10 µL of thrombin in PBS (4 µM) was added in each well and incubated at 37° C. under shaking for 30 min. Finally, the un-clotted blood was removed to obtain the weight of the wet clotted thrombus.

[2] = system: ADP-induced platelet aggregation; experiment: In vitro antiplatelet aggregation assay, ADP-induced; format: cell-based, sheep; settings: Ovis aries, equivalent ASA concentration of 0.1 mM, read-out: Percentage of inhibition of ADP-induced platelet aggregation
Experimental: (§1) The final platelet count was adjusted to 2 × 10^8 platelets/mL. 150 µL of PRP was seeded in 96-well plates and was incubated with 50 µL of various formulations: ASA-RBCVs, ASA-RGD-RBCVs, ASA-cRGD-PEG-RBCVs or ASA (equivalent ASA concentration of 0.1 mM) in the presence of 10 µL platelet agonist thrombin in PBS (4 µM), arachidonic acid (AA) in PBS (400 µM) or adenosine diphosphate (ADP) in PBS (15 µM). After incubation under shaking at 37° C. for 40 min, the absorbance at 595 nm was measured by a GloMax-Multi Microplate Multimode Reader (Promega, USA). The aggregation percentage was calculated by the equation 2. From the platelet aggregation percentage and comparison to aggregation of PBS without samples, the inhibition percentage was calculated by the equation 3.

[3] = system: thrombin-induced platelet aggregation; experiment: In vitro antiplatelet aggregation assay, thrombin-induced; format: cell-based, sheep; settings: Ovis aries, equivalent ASA concentration of 0.1 mM, read-out: Percentage of inhibition of thrombin-induced platelet aggregation
Experimental: as §1

[4] = system: AA-induced platelet aggregation; experiment: In vitro antiplatelet aggregation assay, arachidonic acid (AA)-induced; format: cell-based, sheep; settings: Ovis aries, equivalent ASA concentration of 0.1 mM, read-out: Percentage of inhibition of AA-induced platelet aggregation
Experimental: as §1

[5] = system: fibrinogen mediated platelet aggregation in platelet-rich plasma (active αIIbβ3); format: cell-based, sheep
Experimental: Binding affinity of free liner RGD or cRGD peptides to activated platelets can be indicated by a half maximal inhibitory concentration (IC50) value, which is the peptide concentration required to inhibit fibrinogen mediated platelet aggregation in platelet-rich plasma (PRP) by 50%. PRP was incubated with various concentrations of liner RGD or cRGD peptides in the presence of platelet agonist, thrombin (4 µM) for 30 min under stirring. The platelet aggregation percentage was determined with a GloMax-Multi Microplate Multimode Reader (Promega, USA) by measuring the absorbance at 595 nm. The platelet aggregation percentage was calculated by the following equation: […]
where Ao is the initial absorbance at 595 nm, and At is the absorbance at 595 nm after incubation.
The percentage platelet aggregation inhibition was calculated by the following equation: […]
where PAPBS is the platelet aggregation in the PRP control in the presence of thrombin and PBS only (no peptides), and PAs is the platelet aggregation in the PRP sample in the presence of thrombin and peptides.

[6] = target: active GPIIb-IIIa (αIIbβ3) integrin on thrombin-activated platelets (sheep); experiment: cell-based or functional assay
[7] = in circulation, background; cited from earlier work
Halo blood clots = experiment: Blood clot lysis in a Halo blood clot model; format: cell-based, sheep; settings: after 45 min of treatment
Experimental: Briefly, a clotting mixture (5 mL of buffer containing 66 mM Tris-HCl, 130 mM NaCl and 45 mM CaCl2; 5 µL of 1 µM thrombin, pH 7.4) was freshly prepared. In a 96-well microplate, 5 µL of this clotting mixture was placed on one side of the well bottom, then 15 µL of whole blood was added on the opposite side of the well bottom. Clotting was initiated by mixing the two drops with a pipette tip in a circular motion to form a homogenous halo shape of blood around the edge of the well bottom, leaving the centre area empty. The plate was covered and incubated at 37° C. for 30 min. After clot formation, 80 µL tPA-RBCVs, tPA-RGD-RBCVs, tPA-cRGD-PEG-RBCVs and free tPA (equivalent tPA dose of 1 mg mL^-1) were added simultaneously into respective wells containing halo clots. The dissolution of the halo clots was determined with a plate reader GloMax-Multi Microplate Multimode Reader (Promega, USA) by measuring absorbance at 495 nm caused by RBCs progressively covering the centre of the well after clot degradation at 37° C. […] The percentage of clot dissolution was calculated according to the following equation: […]
where As is the absorbance of well at 495 nm after incubation with samples; An is the absorbance of negative control well at 495 nm; Ap is the absorbance of positive control well at 495 nm.

fibrin clot = experiment: Fibrin clot lysis, agar plate assay, in the presence of activated platelets; format: biochemical; settings: equivalent tPA 1 mg mL^-1, 37° C. overnight, activated platelets present
Experimental: Fibrin clot lysis by the tPA-loaded vesicles was measured by an agar plate assay. Briefly, 300 mg agar was dissolved in buffer mixture (15 mL of 0.05 M Tris-HCl buffer at pH 7.2 and 5 mL of 0.025 M CaCl2 solution). 50 mg Fibrinogen was dissolved in 10 mL of Tris-HCl buffer (0.05 M, pH 7.2). The agar solution was mixed with the fibrinogen solution, and then 10 µL thrombin (4.0 µM) was added under stirring for 1 min. The resulting mixture was spread carefully on a transparent plastic plate and homogeneous gels were obtained at 37° C. after 3h. […] were created in each plate and 5 µL of plasminogen solution (1 mg mL^-1) was then added into each sample well. PBS buffer, tPA-RBCVs, tPA-RGD-RBCVs, tPA-cRGD-PEG-RBCVs and free tPA (equivalent tPA dose of 1 mg mL^-1) were added into respective sample wells and incubated at 37° C. overnight. The area of the lysed zone in each well was measured to evaluate the degree of fibrin clot lysis.

[8] = target: T1, active GPIIb-IIIa (αIIbβ3) integrin on thrombin-activated platelets (sheep, UniProt A0ACI6RZ73 32-1033; A0ACI6S117 125-886); experiment: cell-based or functional assay
[9] = target: T1, active GPIIb-IIIa (αIIbβ3) integrin on …; experiment: MFI of confocal images of thrombin-activated platelets; reference is uncoated tPA-RBCVs
Experimental: 2 mL platelets (1.0 × 10⁸ mL⁻¹) were seeded in 6-well plates, with a collagen-coated glass coverslip on the bottom of each well. After 30 min, 100 µL thrombin (1 U/mL) was added onto the platelet-adhered coverslips to ensure activation of platelets at least 20 min. Inactivated platelets or thrombin-activated platelets were incubated with various FITC-labelled tPA-loaded vesicle formulations (equivalent tPA concentration of 0.2 mg mL⁻¹). The platelets were then fixed with 4.0% formaldehyde for 30 min, followed by rinsing with pH 7.4 PBS buffer for three times. Subsequently, the resulting slides were mounted and observed with a Leica SP₅ MP confocal microscope.

[10] = target: T1, active GPIIb-IIIa (αIIbβ3) integrin on …; experiment: flow cytometry on thrombin-activated platelets; reference is uncoated tPA-RBCVs
Experimental: (§2) 2 mL platelets (1.0 × 10⁸ mL⁻¹) were seeded in 6-well plates and activated by incubation with 100 µL thrombin (1 U/mL) for at least 20 min. Inactivated platelets or thrombin-activated platelets were incubated with various FITC-labelled tPA-loaded vesicle formulations (equivalent tPA concentration of 0.2 mg mL⁻¹). Free vesicles, which were not attached to platelets, were removed by centrifugation. Data for 1.0 × 10⁴ gated events were collected and analysed using a BD Fortessa II flow cytometer.

[11] = target: T1, active GPIIb-IIIa (αIIbβ3) integrin on …; experiment: flow cytometry on thrombin-activated platelets; reference is uncoated RBCVs
Experimental: as §2, with “NBD-labelled RBCV” for “FITC-labelled tPA-loaded vesicle”, “NBD-PE” for “tPA concentration”, “1.0 × 10⁻⁷ mol).” for “0.2 mg mL⁻¹).”

[12] = target: T1, active GPIIb-IIIa (αIIbβ3) integrin on …; experiment: MFI of confocal images of thrombin-activated platelets; reference is uncoated RBCVs

T1 sequence (chain, as listed by the source, chain 1 of 2): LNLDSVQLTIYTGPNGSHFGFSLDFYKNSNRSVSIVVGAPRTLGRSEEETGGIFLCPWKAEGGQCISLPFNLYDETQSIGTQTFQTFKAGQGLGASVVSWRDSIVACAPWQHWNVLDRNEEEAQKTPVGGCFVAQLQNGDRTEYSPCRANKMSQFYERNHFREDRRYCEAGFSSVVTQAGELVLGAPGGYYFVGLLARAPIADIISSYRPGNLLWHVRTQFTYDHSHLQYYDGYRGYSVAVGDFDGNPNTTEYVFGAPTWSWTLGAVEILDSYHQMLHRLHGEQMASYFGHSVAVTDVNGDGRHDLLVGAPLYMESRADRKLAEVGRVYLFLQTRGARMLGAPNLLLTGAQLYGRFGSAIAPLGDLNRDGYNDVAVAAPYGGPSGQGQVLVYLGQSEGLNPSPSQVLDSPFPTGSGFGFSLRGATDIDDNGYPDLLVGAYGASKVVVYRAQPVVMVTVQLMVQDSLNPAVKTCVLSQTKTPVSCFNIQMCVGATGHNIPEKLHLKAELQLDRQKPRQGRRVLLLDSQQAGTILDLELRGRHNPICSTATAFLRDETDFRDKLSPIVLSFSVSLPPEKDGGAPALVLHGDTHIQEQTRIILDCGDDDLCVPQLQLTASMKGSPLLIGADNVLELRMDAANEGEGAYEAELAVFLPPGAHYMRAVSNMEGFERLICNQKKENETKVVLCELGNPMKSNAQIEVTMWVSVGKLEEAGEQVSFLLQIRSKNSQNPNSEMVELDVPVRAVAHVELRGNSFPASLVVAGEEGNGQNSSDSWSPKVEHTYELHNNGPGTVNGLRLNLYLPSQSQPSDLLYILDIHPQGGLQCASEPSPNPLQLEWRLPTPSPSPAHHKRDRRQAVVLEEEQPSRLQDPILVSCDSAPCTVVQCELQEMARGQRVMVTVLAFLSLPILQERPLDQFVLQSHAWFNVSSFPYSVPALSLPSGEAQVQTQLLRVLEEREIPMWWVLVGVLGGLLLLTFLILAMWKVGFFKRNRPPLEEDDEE
T1 sequence (chain, as listed by the source, chain 2 of 2): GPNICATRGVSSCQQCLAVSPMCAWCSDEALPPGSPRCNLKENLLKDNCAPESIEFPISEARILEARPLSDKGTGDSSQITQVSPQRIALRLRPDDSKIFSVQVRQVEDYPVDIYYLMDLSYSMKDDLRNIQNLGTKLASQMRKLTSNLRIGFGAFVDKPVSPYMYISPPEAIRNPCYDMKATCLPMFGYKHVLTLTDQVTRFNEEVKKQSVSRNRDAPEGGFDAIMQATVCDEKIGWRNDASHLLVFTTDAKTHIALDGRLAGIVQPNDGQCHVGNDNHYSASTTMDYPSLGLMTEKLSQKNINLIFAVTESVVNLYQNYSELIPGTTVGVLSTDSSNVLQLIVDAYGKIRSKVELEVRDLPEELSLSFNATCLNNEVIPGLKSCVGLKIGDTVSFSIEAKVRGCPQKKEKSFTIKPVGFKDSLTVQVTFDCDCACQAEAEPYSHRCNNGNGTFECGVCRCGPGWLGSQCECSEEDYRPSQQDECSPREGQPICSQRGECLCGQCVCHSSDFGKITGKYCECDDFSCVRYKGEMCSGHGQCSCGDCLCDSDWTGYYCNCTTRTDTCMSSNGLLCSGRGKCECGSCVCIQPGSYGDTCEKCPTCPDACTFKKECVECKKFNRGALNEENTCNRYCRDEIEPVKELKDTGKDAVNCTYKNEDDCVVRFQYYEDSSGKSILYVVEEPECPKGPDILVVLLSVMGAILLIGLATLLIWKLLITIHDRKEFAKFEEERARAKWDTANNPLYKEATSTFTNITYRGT
Chain of active GPIIb-IIIa (αIIbβ3) integrin on thrombin-activated platelets (sheep) (chain, as listed by the source, chain 1 of 2): as the sequence (chain, as listed by the source, chain 1 of 2) above
Chain of active GPIIb-IIIa (αIIbβ3) integrin on thrombin-activated platelets (sheep) (chain, as listed by the source, chain 2 of 2): as the sequence (chain, as listed by the source, chain 2 of 2) above

CC(=O)Oc1ccccc1C(=O)O [ASA, acetylsalicylic acid]
Thrombus weight [1]: 49.27 ± 10.73 mg
inhibition at 100 µM [2]: 27.6 ± 2.71%
inhibition at 100 µM [3]: 20.5 ± 1.04%
inhibition at 100 µM [4]: 23.8 ± 4.26%

CC(C)[C@@H]1NC(=O)[C@@H](Cc2ccccc2)NC(=O)[C@H](CC(=O)O)NC(=O)CNC(=O)[C@H](CCCNC(=N)N)NC1=O [cRGD, cyclo(Arg-Gly-Asp-d-Phe-Val)]
IC50 [5]: 460 µM

linear RGD peptide (Arg-Gly-Asp), free
IC50 (peptide concentration for 50% inhibition of fibrinogen-mediated platelet aggregation in PRP, thrombin 4 µM) [6]: 382 µM

tPA: Tissue plasminogen activator (tPA, alteplase), product of Boehringer Ingelheim
Half-life [7]: 2~6 min
Blood clot lysis (in words) (Halo blood clots): complete blood clot lysis
Area of fibrin lysis ring (fibrin clot): 1.18 ± 0.17 cm^2

cyclo(RGD[dF]V) [cyclo(Arg-Gly-Asp-d-Phe-Val), free]
IC50 (peptide concentration for 50% inhibition of fibrinogen-mediated platelet aggregation in PRP, thrombin 4 µM) [8]: 460 µM

B1: tPA-loaded, RGD-coated red blood cell-derived vesicles (tPA-RGD-RBCVs) (other)
peptide: C([maleimidomethyl‑cyclohexane‑carboxamide-DSPE])RGD
modifications: also: many copies anchored in red blood cell-derived vesicle membrane, tPA encapsulated
notes: also called FITC-labelled tPA-RGD-RBCVs; fibrinogen-mimicking RBCV
fold enhancement in binding affinity (MFI) against tPA-RBCVs [9]: ~4 fold
fold increase in fluorescence intensity against FITC-labelled tPA-RBCVs [10]: > 4 fold

B2: RGD-coated red blood cell-derived vesicles without drug (RGD-RBCVs) (other)
peptide: C([maleimidomethyl‑cyclohexane‑carboxamide-DSPE])RGD
notes: Vesicle labelled with NBD-PE for flow cytometry and CLSM, or with NBD-PE and Rhod-PE for FRET; also called NBD-labelled RGD-RBCVs
fold increase in fluorescence intensity against NBD-labelled RBCVs [11]: > 4 fold
fold enhancement in binding affinity (MFI) against RBCVs [12]: ~4 fold
